Test system: 958667-338-R-J2-PDC tumor spheroids viability
Assay: Anticancer human tumor 958667-338-R-J2-PDC patient-derived colon adenocarcinoma cell line growth inhibition [PI3K]
Conditions: spheroids with HUVEC and MSC; for IC50: curve of first compound; for viability, T/C: stronger effect = lower value
In short: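 Multi-cell spheroids combine tumor cells with HUVEC and human MSCs, treated with targeted agents alone or with inavolisib, alpelisib, duvelisib or copanlisib. Concentrations fall in half-log steps from at or near clinical Cmax, or from 10 microM where Cmax is unknown; viability read-out.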

[1] = second compound 0.0316 µM, first compound 0.0316 µM
[2] = second compound 0.0316 µM, first compound 0.1 µM
[3] = second compound 0.0316 µM, first compound 0.316 µM
[4] = second compound 0.0316 µM, first compound 1 µM
[5] = second compound 0.0316 µM, first compound 3.16 µM
[6] = second compound 0.0316 µM, first compound 10 µM
[7] = second compound 0.1 µM, first compound 0.0316 µM
[8] = second compound 0.1 µM, first compound 0.1 µM
[9] = second compound 0.1 µM, first compound 0.316 µM
[10] = second compound 0.1 µM, first compound 1 µM
[11] = second compound 0.1 µM, first compound 3.16 µM
[12] = second compound 0.1 µM, first compound 10 µM
[13] = second compound 0.316 µM, first compound 0.0316 µM
[14] = second compound 0.316 µM, first compound 0.1 µM
[15] = second compound 0.316 µM, first compound 0.316 µM
[16] = second compound 0.316 µM, first compound 1 µM
[17] = second compound 0.316 µM, first compound 3.16 µM
[18] = second compound 0.316 µM, first compound 10 µM
[19] = second compound 1 µM, first compound 0.0316 µM
[20] = second compound 1 µM, first compound 0.1 µM
[21] = second compound 1 µM, first compound 0.316 µM
[22] = second compound 1 µM, first compound 1 µM
[23] = second compound 1 µM, first compound 3.16 µM
[24] = second compound 1 µM, first compound 10 µM
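Note: spheroids exposed to compounds for seven days before readout.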

For CC(C)NCC(C(=O)N1CCN(c2ncnc3c2C(C)CC3O)CC1)c1ccc(Cl)cc1 (centres undefined) + COc1c(OCCCN2CCOCC2)ccc2c3n(c(=NC(=O)c4cnc(N)nc4)nc12)CCN3, the IC50 (second compound 0.00316 µM) was greater than 10 µM, the IC50 (second compound 0.01 µM) was greater than 10 µM and the IC50 (second compound 0.0316 µM) was greater than 10 µM. It also gave an IC50 (second compound 0.1 µM) of 4.02 µM, an IC50 (second compound 0.316 µM) of less than 0.0316 µM and an IC50 (second compound 1 µM) of less than 0.0316 µM. For the same molecule, the viability, T/C (second compound 0.00316 µM, first compound 0.0316 µM) was 94.4%, the viability, T/C (second compound 0.00316 µM, first compound 0.1 µM) was 88% and the viability, T/C (second compound 0.00316 µM, first compound 0.316 µM) was 74%. The viability, T/C (second compound 0.00316 µM, first compound 1 µM) was 95.7%, the viability, T/C (second compound 0.00316 µM, first compound 3.16 µM) was 90.7% and the viability, T/C (second compound 0.00316 µM, first compound 10 µM) was 60.2%. For the same molecule, the viability, T/C (second compound 0.01 µM, first compound 0.0316 µM) was 97.8%, the viability, T/C (second compound 0.01 µM, first compound 0.1 µM) was 73.9% and the viability, T/C (second compound 0.01 µM, first compound 0.316 µM) was 69%. The viability, T/C (second compound 0.01 µM, first compound 1 µM) was 100%, the viability, T/C (second compound 0.01 µM, first compound 3.16 µM) was 54.8% and the viability, T/C (second compound 0.01 µM, first compound 10 µM) was 66.2%. It also gave a viability, T/C [1] of 68.7%, a viability, T/C [2] of 69.3% and a viability, T/C [3] of 67.8%. The viability, T/C [4] was 77.7%, the viability, T/C [5] was 71.3% and the viability, T/C [6] was 50.6%. It also gave a viability, T/C [7] of 61.6%, a viability, T/C [8] of 43.2% and a viability, T/C [9] of 67.4%. It also gave a viability, T/C [10] of 60.5%, a viability, T/C [11] of 51.1% and a viability, T/C [12] of 37.4%. It also gave a viability, T/C [13] of 36.9%, a viability, T/C [14] of 35.3% and a viability, T/C [15] of 29.8%. For the same molecule, the viability, T/C [16] was 38.1%, the viability, T/C [17] was 27.2% and the viability, T/C [18] was 23.1%. The viability, T/C [19] was 17.6%, the viability, T/C [20] was 18.7% and the viability, T/C [21] was 15.4%. It also gave a viability, T/C [22] of 19.5%, a viability, T/C [23] of 16.2% and a viability, T/C [24] of 14.8%.

Molecule CNC(=O)c1ccc(N2C(=S)N(c3ccc(C#N)c(C(F)(F)F)c3)C(=O)C2(C)C)cc1F + CC(Nc1ncnc2nc[nH]c12)c1cc2cccc(Cl)c2c(=O)n1-c1ccccc1 has an IC50 (second compound 0.0316 µM) greater than 10 µM, an IC50 (second compound 0.1 µM) greater than 10 µM and an IC50 (second compound 0.316 µM) greater than 10 µM. The IC50 (second compound 1 µM) was greater than 10 µM, the IC50 (second compound 3.16 µM) was greater than 10 µM and the IC50 (second compound 10 µM) was greater than 10 µM. It also gave a viability, T/C [1] of 103%, a viability, T/C [2] of 94.7% and a viability, T/C [3] of 105%. For the same molecule, the viability, T/C [4] was 101%, the viability, T/C [5] was 113% and the viability, T/C [6] was 99.2%. It also gave a viability, T/C [7] of 119%, a viability, T/C [8] of 98.7% and a viability, T/C [9] of 87.1%. For the same molecule, the viability, T/C [10] was 83.5%, the viability, T/C [11] was 114% and the viability, T/C [12] was 87%. For the same molecule, the viability, T/C [13] was 103%, the viability, T/C [14] was 88.3% and the viability, T/C [15] was 101%. The viability, T/C [16] was 107%, the viability, T/C [17] was 121% and the viability, T/C [18] was 107%. It also gave a viability, T/C [19] of 96.7%, a viability, T/C [20] of 91.3% and a viability, T/C [21] of 102%. It also gave a viability, T/C [22] of 96.4%, a viability, T/C [23] of 104% and a viability, T/C [24] of 94%. The viability, T/C (second compound 3.16 µM, first compound 0.0316 µM) was 91.8%, the viability, T/C (second compound 3.16 µM, first compound 0.1 µM) was 86.3% and the viability, T/C (second compound 3.16 µM, first compound 0.316 µM) was 72.7%. The viability, T/C (second compound 3.16 µM, first compound 1 µM) was 101%, the viability, T/C (second compound 3.16 µM, first compound 3.16 µM) was 119% and the viability, T/C (second compound 3.16 µM, first compound 10 µM) was 84.2%. The viability, T/C (second compound 10 µM, first compound 0.0316 µM) was 103%, the viability, T/C (second compound 10 µM, first compound 0.1 µM) was 96.5% and the viability, T/C (second compound 10 µM, first compound 0.316 µM) was 101%. The viability, T/C (second compound 10 µM, first compound 1 µM) was 87.9%, the viability, T/C (second compound 10 µM, first compound 3.16 µM) was 115% and the viability, T/C (second compound 10 µM, first compound 10 µM) was 74.8%.

Source: PubChem BioAssay AID1963963 (Molecular Pharmacology Branch, DTP, NCI, 2024)
